In this series the test system is human apolipoprotein B mRNA. Kind of series: Inhibition of human apolipoprotein B mRNA levels in HepG2 cells, quantitative real-time PCR. The settings on record: for % INHIB (inhibition of human apolipoprotein B mRNA levels): HepG2 cells treated with 150 nM of compound, quantitative real-time PCR. The series is classed as cell-based. The gist of the method: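 HepG2 cells at 80% confluency were transfected with antisense oligonucleotide using 3.75 μg/mL Lipofectin in Opti-MEM for 4-7 h and harvested 16-24 h after treatment. Apolipoprotein B mRNA was measured by real-time RT-PCR and normalized to GAPDH or RiboGreen total RNA. Percent inhibition came from untreated-control standard curves.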
Background: Quantitative PCR measures a nucleic acid by following its amplification.

[1] abbreviates: HepG2 cells, human apolipoprotein B mRNA, oligonucleotides targeting genomic sequence SEQ ID NO 334, averages from two experiments.
The mark [2] stands for this setting: HepG2 cells, 50 nm oligonucleotide, variable deoxy gap position.
The mark [3] stands for this setting: HepG2 cells, 150 nm oligonucleotide, variable deoxy gap position.
Setting [4] is: Table 11 gene walk, HepG2 cells, 50 nM, averages from two experiments.
[5] abbreviates: Table 11 gene walk, HepG2 cells, 150 nM, averages from two experiments.
Setting [6] is: Table 1, HepG2 cells, 150 nM, averages from two experiments.

These results are taken from US7803930B2, “Antisense modulation of apolipoprotein B-expression” (Isis Pharmaceuticals, Inc., priority 2002, dated 2010).

In the oligonucleotide strings, read from the 5' end, every base follows the letter of its sugar. An asterisk marks phosphorothioate; unmarked linkages are phosphodiester. Other units and linkages are bracketed, terminal groups are in braces. A string of capitals states the bases alone. e = 2'-O-(2-methoxyethyl) (MOE); [5mC] = 5-methylcytosine; d = 2'-deoxy (DNA)

Turning to “301113 (antisense eA*eG*eG*eT*eG*d[5mC]*dA*dA*dG*dA*dT*dG*dT*dT*d[5mC]*e[5mC]*eT*e[5mC]*eT*eG) [compound 301113]”, the “% INHIB” value under setting [1] amounted to 46%.
Consider “271006 (antisense eA*eG*eT*e[5mC]*e[5mC]*dG*dG*dA*dA*dT*dG*dA*dT*dG*dA*eT*eG*e[5mC]*e[5mC]*e[5mC]) [compound 271006]”, for which the “% INHIB (inhibition of human apolipoprotein B mRNA levels)” value (averages from two experiments) is on record as 42%.
For the substance “301080 (e[5mC]*e[5mC]*e[5mC]*eA*eG*d[5mC]*dA*dA*dA*d[5mC]*dA*d[5mC]*dA*dG*dG*eT*eG*eA*eA*eG; antisense) [compound 301080]”, the “% INHIB” value under setting [1] is reported as 25%.
Same read-out and setting: next, “301141 (eT*eA*e[5mC]*eA*eA*dG*dG*dT*dG*dT*dT*dT*d[5mC]*dT*dT*eA*eA*eG*eA*eA; antisense) [compound 301141]”: 38%.
Take “281617 (antisense eA*e[5mC]*e[5mC]*eA*e[5mC]*dA*dG*dA*dG*dT*d[5mC]*dA*dG*d[5mC]*d[5mC]*eT*eT*e[5mC]*eA*eT) [compound 281617]”: the “% INHIB (inhibition of human apolipoprotein B mRNA levels)” value (averages from two experiments) is 89%.
Consider “301125 (eA*eG*eG*eG*eA*dT*dG*dG*dT*d[5mC]*dA*dA*dT*d[5mC]*dT*eG*eG*eT*eA*eG; antisense) [compound 301125]”, for which, under setting [1], the “% INHIB” value is on record as 57%.
On to “271025 (eT*e[5mC]*e[5mC]*eA*eT*dT*d[5mC]*d[5mC]*d[5mC]*dT*dA*dT*dG*dT*d[5mC]*eA*eG*e[5mC]*eA*eT; antisense) [compound 271025]”, for which the “% INHIB (inhibition of human apolipoprotein B mRNA levels)” value (averages from two experiments) turned out to be 16%.
With “308652 (antisense AGGTTACCAGCCACATGCAG; 7-10-3 2'-MOE gapmer, phosphorothioate, chemistry not fully specified) [compound 308652]”, the “% INHIB 50 nm” value under setting [2] is 73%. The “% INHIB 150 nm” value under setting [3] was determined as 95%.
For “301052 (eA*eG*eA*eA*eA*dT*dA*dG*d[5mC]*dT*d[5mC]*dT*d[5mC]*d[5mC]*d[5mC]*eA*eA*eG*eG*eA; antisense) [compound 301052]”, the “% INHIB” value under setting [1] is listed as 13%.
With “301034 (eT*eG*e[5mC]*eT*eT*dA*dT*dA*dG*dT*d[5mC]*dT*dA*d[5mC]*dT*eG*e[5mC]*e[5mC]*eT*eA; antisense) [compound 301034]”, the “% INHIB (inhibition of human apolipoprotein B mRNA levels)” value (averages from two experiments) is on record as 88%. In addition, the “% inhibition 37 nM” value (Table 19 dose response, HepG2 cells, 37 nM, normalized to untreated control) was determined as 73%. Further, the “% inhibition 75 nM” value (Table 19 dose response, HepG2 cells, 75 nM, normalized to untreated control) is given as 87%. The “% inhibition 150 nM” value (Table 19 dose response, HepG2 cells, 150 nM, normalized to untreated control) was found to be 93%. For the same substance, the “% inhibition 300 nM” value (Table 19 dose response, HepG2 cells, 300 nM, normalized to untreated control) is given as 97%.
As to “301171 (antisense eT*eA*eT*eT*eT*dA*dA*dT*dT*dT*dA*d[5mC]*dT*dG*dA*eG*eA*eA*eA*e[5mC]) [compound 301171]”, the “% INHIB” value under setting [1] is on record as 7%.
Still for that read-out and setting: the value for “301131 (e[5mC]*eT*eT*eT*eT*dT*d[5mC]*dA*dG*dA*d[5mC]*dT*dA*dG*dA*eT*eA*eA*eG*eA; antisense) [compound 301131]” was 0%; that for “301055 (eT*eG*eG*e[5mC]*eT*d[5mC]*dA*dT*dG*dT*d[5mC]*dT*dA*d[5mC]*d[5mC]*eA*eT*eA*eT*eT; antisense) [compound 301055]” was 49%.
For the substance “271041 (e[5mC]*e[5mC]*eA*eT*eA*dT*d[5mC]*d[5mC]*dA*dT*dG*d[5mC]*d[5mC]*d[5mC]*dA*e[5mC]*eG*eG*eT*eG; antisense) [compound 271041]”, the “% INHIB (inhibition of human apolipoprotein B mRNA levels)” value (averages from two experiments) came out at 37%.
Turning to “308597 (antisense eT*e[5mC]*eA*eG*eT*d[5mC]*dT*dG*d[5mC]*dT*dT*d[5mC]*dG*d[5mC]*dA*e[5mC]*e[5mC]*eT*eT*e[5mC]) [compound 308597]”, under setting [4], the “% INHIB 50 nm” value was found to be 66%. The “% INHIB 150 nm” value under setting [5] is recorded as 91%.
In the case of “308661 (antisense AGTCTGCTTCGCGCCTTCTG; 2-10-8 2'-MOE gapmer, phosphorothioate, chemistry not fully specified) [compound 308661]”, the “% INHIB 50 nm” value (Table 17 variable gap, HepG2 cells, 50 nM, averages from three experiments) was determined as 70%. Also, the “% INHIB 150 nm” value (Table 17 variable gap, HepG2 cells, 150 nM, averages from three experiments) was found to be 91%.
For “271018 (antisense eA*eT*eG*eT*eG*dA*dA*dA*d[5mC]*dT*dT*dG*dT*d[5mC]*dT*e[5mC]*eT*e[5mC]*e[5mC]*e[5mC]) [compound 271018]”, for the setting “averages from two experiments”, the “% INHIB (inhibition of human apolipoprotein B mRNA levels)” value worked out at 44%.
Take “308601 (antisense eT*eG*eG*eT*eA*dG*d[5mC]*d[5mC]*dT*d[5mC]*dA*dG*dT*d[5mC]*dT*eG*e[5mC]*eT*eT*e[5mC]) [compound 308601]”: the “% INHIB 50 nm” value under setting [4] is 63%. Further, under setting [5], the “% INHIB 150 nm” value is 91%.
In the case of “147828 (antisense eA*e[5mC]*eG*eT*eT*dA*dT*d[5mC]*d[5mC]*dT*dT*dG*dA*dG*dT*e[5mC]*e[5mC]*e[5mC]*eT*eG) [compound 147828]”, the “% INHIB” value under setting [6] is 12%.
Consider “308655 (antisense AGGTTACCAGCCACATGCAG; 8-10-2 2'-MOE gapmer, phosphorothioate, chemistry not fully specified) [compound 308655]”, for which the “% INHIB 50 nm” value under setting [2] turned out to be 84%. For the same substance, the “% INHIB 150 nm” value under setting [3] is recorded as 83%.
For “308592 (antisense eT*e[5mC]*eG*e[5mC]*eA*d[5mC]*d[5mC]*dT*dT*d[5mC]*dT*dG*d[5mC]*dT*dT*eG*eA*eG*eT*eT) [compound 308592]”, the “% INHIB 50 nm” value under setting [4] was determined as 49%. In addition, the “% INHIB 150 nm” value under setting [5] is listed as 96%.
“301060 (e[5mC]*e[5mC]*eA*eG*e[5mC]*dT*d[5mC]*dA*dA*d[5mC]*d[5mC]*dT*dG*dA*dG*eA*eA*eT*eT*e[5mC]; antisense) [compound 301060]”: the “% INHIB” value under setting [1] is reported as 17%.
Same read-out and setting: next, “301193 (antisense eA*eG*e[5mC]*eT*e[5mC]*dA*dT*dT*dG*d[5mC]*d[5mC]*dT*dA*d[5mC]*dA*eA*eA*eA*eT*eG) [compound 301193]”: 31%.
With “308593 (antisense e[5mC]*eT*eT*e[5mC]*eG*d[5mC]*dA*d[5mC]*d[5mC]*dT*dT*d[5mC]*dT*dG*d[5mC]*eT*eT*eG*eA*eG) [compound 308593]”, the “% INHIB 50 nm” value under setting [4] is on record as 41%. In addition, the “% INHIB 150 nm” value under setting [5] was 80%.
Take “271038 (eG*eT*e[5mC]*eT*eA*d[5mC]*d[5mC]*dT*d[5mC]*dA*dA*dA*dG*d[5mC]*dG*eT*eG*e[5mC]*eA*eG; antisense) [compound 271038]”: the “% INHIB (inhibition of human apolipoprotein B mRNA levels)” value (averages from two experiments) is listed as 29%.
Turning to “301161 (eA*eT*eG*e[5mC]*eA*dT*dT*d[5mC]*d[5mC]*d[5mC]*dT*dG*dA*d[5mC]*dT*eA*eG*e[5mC]*eA*e[5mC]; antisense) [compound 301161]”, under setting [1], the “% INHIB” value is 34%.
“301158 (e[5mC]*eT*eA*e[5mC]*e[5mC]*dT*d[5mC]*dA*dA*dA*dT*d[5mC]*dA*dA*dT*eA*eT*eG*eT*eT; antisense) [compound 301158]”: the “% INHIB” value under setting [1] was 28%.
The same measure, in the same setting: the value for “301166 (antisense eA*eT*eT*e[5mC]*eT*dG*d[5mC]*d[5mC]*dT*d[5mC]*dT*dT*dA*dG*dA*eA*eA*eG*eT*eT) [compound 301166]” was 38%.
In the case of “308650 (antisense GCCTCAGTCTGCTTCGCACC; 6-10-4 2'-MOE gapmer, phosphorothioate, chemistry not fully specified) [compound 308650]”, under setting [2], the “% INHIB 50 nm” value is 74%. The “% INHIB 150 nm” value under setting [3] was found to be 94%.
Regarding “301079 (eT*eG*eA*e[5mC]*eT*dG*dT*dT*dT*dT*dA*dA*dA*dA*dT*eT*eA*eG*eA*e[5mC]; antisense) [compound 301079]”, the “% INHIB” value under setting [1] was 20%.
Turning to “271033 (e[5mC]*eA*eG*eT*eA*d[5mC]*dT*dG*dT*dT*dA*dT*dG*dA*d[5mC]*eT*eA*e[5mC]*e[5mC]*e[5mC]; antisense) [compound 271033]”, the “% INHIB (inhibition of human apolipoprotein B mRNA levels)” value (averages from two experiments) is 34%.
For the substance “301090 (antisense eA*eT*eT*eA*eG*dA*d[5mC]*dT*dG*dG*dA*dA*dG*d[5mC]*dA*eT*e[5mC]*e[5mC]*eT*eG) [compound 301090]”, the “% INHIB” value under setting [1] is given as 39%.
The same measure, in the same setting: next, “301071 (e[5mC]*eA*e[5mC]*eT*eT*dG*dT*dT*dG*dG*dA*d[5mC]*dA*dG*dT*e[5mC]*eA*eT*eT*e[5mC]; antisense) [compound 301071]”: 48%.
For “147794 (antisense eG*eT*eA*eA*eT*d[5mC]*dT*dT*d[5mC]*dA*dT*d[5mC]*d[5mC]*d[5mC]*d[5mC]*eA*eG*eT*eG*e[5mC]) [compound 147794]”, the “% INHIB” value under setting [6] is recorded as 47%.
On to “308608 (eA*eT*eA*eT*eT*dT*dG*dA*dA*dT*dG*dT*d[5mC]*dA*dT*eG*eG*eT*eA*eG; antisense) [compound 308608]”, for which the “% INHIB 50 nm” value under setting [4] worked out at 70%. In addition, the “% INHIB 150 nm” value under setting [5] was determined as 85%.
Consider “301097 (antisense eG*eG*eT*eA*eG*d[5mC]*d[5mC]*dA*dG*dA*dA*d[5mC]*dA*d[5mC]*d[5mC]*eA*eG*eT*eG*eT) [compound 301097]”, for which the “% INHIB” value under setting [1] is 50%.
With “271046 (e[5mC]*e[5mC]*e[5mC]*eT*eA*dG*dT*dG*dT*dA*dT*dA*dT*d[5mC]*d[5mC]*e[5mC]*eA*eG*eG*eT; antisense) [compound 271046]”, the “% INHIB (inhibition of human apolipoprotein B mRNA levels)” value (averages from two experiments) is reported as 61%.
On the same count and under the same terms, the value for “271000 (antisense eG*e[5mC]*eA*eG*e[5mC]*dT*d[5mC]*d[5mC]*dT*dG*dG*dG*dT*d[5mC]*d[5mC]*e[5mC]*eT*eG*eT*eA) [compound 271000]” was 22%; that for “301042 (eA*eA*eA*eT*eG*d[5mC]*d[5mC]*dA*dT*d[5mC]*d[5mC]*dT*dT*d[5mC]*dT*eG*eA*eG*eT*eT; antisense) [compound 301042]” was 81%.
